What was measured:
CSNK2A1 = assay: MIB washout assay; assay type: binding, Human; conditions: H23 cells, 1 μM 4h, MIB pulldown ratio SM1-71/SM1-71-R
HCK = assay: MIB washout assay; assay type: binding, Human; conditions: H23 cells, 1 μM 4h, MIB pulldown ratio SM1-71/SM1-71-R
GAK [1] = biological target: T1, GAK (Homo sapiens, UniProt O14976); assay: MIB washout assay; assay type: binding; conditions: H23 cells, 1 μM 4h, MIB pulldown ratio SM1-71/SM1-71-R
T1 sequence (O14976 1-1311): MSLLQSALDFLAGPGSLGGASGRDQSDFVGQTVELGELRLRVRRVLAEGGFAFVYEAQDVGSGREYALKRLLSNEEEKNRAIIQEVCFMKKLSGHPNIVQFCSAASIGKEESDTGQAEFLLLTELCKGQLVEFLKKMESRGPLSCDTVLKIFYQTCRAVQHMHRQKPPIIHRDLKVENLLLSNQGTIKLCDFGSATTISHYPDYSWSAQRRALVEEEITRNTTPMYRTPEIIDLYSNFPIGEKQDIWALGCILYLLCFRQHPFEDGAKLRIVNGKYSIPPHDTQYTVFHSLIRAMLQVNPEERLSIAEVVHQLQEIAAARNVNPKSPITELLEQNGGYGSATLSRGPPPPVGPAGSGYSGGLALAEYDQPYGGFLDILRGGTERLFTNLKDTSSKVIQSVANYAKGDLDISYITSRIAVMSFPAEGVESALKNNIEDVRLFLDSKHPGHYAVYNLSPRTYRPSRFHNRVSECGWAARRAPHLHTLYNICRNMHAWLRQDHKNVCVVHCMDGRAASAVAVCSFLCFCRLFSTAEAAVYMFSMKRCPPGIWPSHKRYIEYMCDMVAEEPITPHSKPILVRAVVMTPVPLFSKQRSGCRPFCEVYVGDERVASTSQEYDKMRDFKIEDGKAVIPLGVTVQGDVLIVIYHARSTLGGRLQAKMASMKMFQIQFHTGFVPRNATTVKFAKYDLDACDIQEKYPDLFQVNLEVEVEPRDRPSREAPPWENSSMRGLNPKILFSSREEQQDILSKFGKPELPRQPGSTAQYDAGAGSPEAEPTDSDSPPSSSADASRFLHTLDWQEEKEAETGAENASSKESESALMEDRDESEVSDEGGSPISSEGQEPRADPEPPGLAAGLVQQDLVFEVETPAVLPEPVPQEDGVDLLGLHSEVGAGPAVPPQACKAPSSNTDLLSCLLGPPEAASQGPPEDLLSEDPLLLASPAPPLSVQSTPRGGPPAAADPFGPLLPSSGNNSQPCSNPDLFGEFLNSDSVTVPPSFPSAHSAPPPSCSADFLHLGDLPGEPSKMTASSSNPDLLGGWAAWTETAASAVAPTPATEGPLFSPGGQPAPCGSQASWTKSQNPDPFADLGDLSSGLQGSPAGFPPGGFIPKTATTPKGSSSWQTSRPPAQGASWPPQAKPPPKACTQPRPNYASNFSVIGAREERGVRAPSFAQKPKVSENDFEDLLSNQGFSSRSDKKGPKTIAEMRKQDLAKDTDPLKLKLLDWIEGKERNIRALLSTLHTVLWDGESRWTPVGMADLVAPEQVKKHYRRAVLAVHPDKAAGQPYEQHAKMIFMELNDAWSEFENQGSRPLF

WEE1 = assay: MIB washout assay; assay type: binding, Human; conditions: H23 cells, 1 μM 4h, MIB pulldown ratio SM1-71/SM1-71-R
MET = assay: MIB washout assay; assay type: binding, Human; conditions: H23 cells, 1 μM 4h, MIB pulldown ratio SM1-71/SM1-71-R
AURKA = biological target: T2, AURKA (Homo sapiens, UniProt O14965); assay: MIB dose-dependent kinase inhibition assay; assay type: binding; conditions: read-out: IC50 in the MIB assay, H23 cell lysate, overnight 4°C
T2 sequence (O14965 1-403): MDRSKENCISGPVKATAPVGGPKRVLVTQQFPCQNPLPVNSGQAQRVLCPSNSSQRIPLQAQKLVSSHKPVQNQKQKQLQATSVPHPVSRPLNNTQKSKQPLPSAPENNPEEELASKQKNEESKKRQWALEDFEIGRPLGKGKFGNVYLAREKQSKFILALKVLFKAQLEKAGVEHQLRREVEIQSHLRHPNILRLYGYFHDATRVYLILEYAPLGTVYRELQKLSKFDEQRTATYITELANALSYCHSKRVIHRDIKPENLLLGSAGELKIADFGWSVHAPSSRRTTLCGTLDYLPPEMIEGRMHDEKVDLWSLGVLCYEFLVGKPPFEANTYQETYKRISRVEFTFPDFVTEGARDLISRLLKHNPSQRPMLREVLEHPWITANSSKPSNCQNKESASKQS

TK2 = assay: MIB washout assay; assay type: binding, Human; conditions: H23 cells, 1 μM 4h, MIB pulldown ratio SM1-71/SM1-71-R
GAK [2] = biological target: T1, GAK; assay: MIB dose-dependent kinase inhibition assay; assay type: binding; conditions: read-out: IC50 in the MIB assay, H23 cell lysate, overnight 4°C
TGFBR2 = assay: MIB washout assay; assay type: binding, Human; conditions: H23 cells, 1 μM 4h, MIB pulldown ratio SM1-71/SM1-71-R
FGFR1 = assay: MIB washout assay; assay type: binding, Human; conditions: H23 cells, 1 μM 4h, MIB pulldown ratio SM1-71/SM1-71-R
CSNK1G1 = assay: MIB washout assay; assay type: binding, Human; conditions: H23 cells, 1 μM 4h, MIB pulldown ratio SM1-71/SM1-71-R
MAP2K2 = assay: MIB washout assay; assay type: binding, Human; conditions: H23 cells, 1 μM 4h, MIB pulldown ratio SM1-71/SM1-71-R
PKMYT1 = assay: MIB washout assay; assay type: binding, Human; conditions: H23 cells, 1 μM 4h, MIB pulldown ratio SM1-71/SM1-71-R
EPHB2 = assay: MIB washout assay; assay type: binding, Human; conditions: H23 cells, 1 μM 4h, MIB pulldown ratio SM1-71/SM1-71-R
LIMK1 = LIMK1 (Homo sapiens, UniProt P53667); assay: MIB dose-dependent kinase inhibition assay; assay type: binding; conditions: read-out: IC50 in the MIB assay, H23 cell lysate, overnight 4°C
PRKD3 = assay: MIB washout assay; assay type: binding, Human; conditions: H23 cells, 1 μM 4h, MIB pulldown ratio SM1-71/SM1-71-R
MAP2K1/2 = assay: MIB dose-dependent kinase inhibition assay; assay type: binding, Human; conditions: read-out: IC50 in the MIB assay, H23 cell lysate, overnight 4°C
PIP4K2C = assay: MIB washout assay; assay type: binding, Human; conditions: H23 cells, 1 μM 4h, MIB pulldown ratio SM1-71/SM1-71-R
EPHA2 = assay: MIB washout assay; assay type: binding, Human; conditions: H23 cells, 1 μM 4h, MIB pulldown ratio SM1-71/SM1-71-R
EIF2AK3 = assay: MIB washout assay; assay type: binding, Human; conditions: H23 cells, 1 μM 4h, MIB pulldown ratio SM1-71/SM1-71-R
CDK17 = assay: MIB washout assay; assay type: binding, Human; conditions: H23 cells, 1 μM 4h, MIB pulldown ratio SM1-71/SM1-71-R

LIMK1, sequence (P53667 whole entry): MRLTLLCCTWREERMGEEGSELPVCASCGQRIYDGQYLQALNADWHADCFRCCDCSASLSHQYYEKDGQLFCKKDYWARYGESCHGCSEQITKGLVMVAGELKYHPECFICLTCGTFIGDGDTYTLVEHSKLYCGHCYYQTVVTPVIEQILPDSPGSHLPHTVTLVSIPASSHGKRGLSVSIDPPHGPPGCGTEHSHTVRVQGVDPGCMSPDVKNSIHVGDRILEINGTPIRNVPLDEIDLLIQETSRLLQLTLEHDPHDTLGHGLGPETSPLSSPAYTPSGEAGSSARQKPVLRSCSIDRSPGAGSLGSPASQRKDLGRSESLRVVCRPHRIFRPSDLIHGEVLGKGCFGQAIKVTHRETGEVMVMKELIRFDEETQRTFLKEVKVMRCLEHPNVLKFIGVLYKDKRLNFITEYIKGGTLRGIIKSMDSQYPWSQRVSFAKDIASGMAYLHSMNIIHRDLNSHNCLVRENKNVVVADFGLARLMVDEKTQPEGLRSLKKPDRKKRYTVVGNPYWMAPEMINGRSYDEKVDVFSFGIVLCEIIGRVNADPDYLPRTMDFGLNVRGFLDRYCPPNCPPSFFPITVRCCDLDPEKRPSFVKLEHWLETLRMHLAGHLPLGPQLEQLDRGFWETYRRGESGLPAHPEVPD

C=CC(=O)Nc1ccccc1Nc1nc(Nc2ccc(N3CCN(C)CC3)cc2)ncc1Cl [SM1-71] gave a BI-0h (CSNK2A1; 0h post-washout) of 0.8, a BI-6h (CSNK2A1; 6h post-washout) of 0.64 and a BI-0h (HCK; 0h post-washout) of 1.3. The BI-6h (HCK; 6h post-washout) was 0.85, the BI-0h (GAK [1]; 0h post-washout) was 0.07 and the BI-6h (GAK [1]; 6h post-washout) was 0.04. The BI-0h (WEE1; 0h post-washout) was 0.98, the BI-6h (WEE1; 6h post-washout) was 0.63 and the BI-0h (MET; 0h post-washout) was 0.75. For the same compound, the BI-6h (MET; 6h post-washout) was 0.53, the IC50 (AURKA) was less than 0.01 µM and the BI-0h (TK2; 0h post-washout) was 0.83. For the same compound, the BI-6h (TK2; 6h post-washout) was 0.95, the IC50 (GAK [2]) was less than 0.01 µM and the BI-0h (TGFBR2; 0h post-washout) was 0.53. The BI-6h (TGFBR2; 6h post-washout) was 0.6, the BI-0h (FGFR1; 0h post-washout) was 0.45 and the BI-6h (FGFR1; 6h post-washout) was 0.42. It also gave a BI-0h (CSNK1G1; 0h post-washout) of 0.55, a BI-6h (CSNK1G1; 6h post-washout) of 0.81 and a BI-0h (MAP2K2; 0h post-washout) of 0.03. The BI-6h (MAP2K2; 6h post-washout) was 0.18, the BI-0h (PKMYT1; 0h post-washout) was 0.47 and the BI-6h (PKMYT1; 6h post-washout) was 0.8. The BI-0h (EPHB2; 0h post-washout) was 0.7, the BI-6h (EPHB2; 6h post-washout) was 0.5 and the IC50 (LIMK1) was less than 0.01 µM. For the same compound, the BI-0h (PRKD3; 0h post-washout) was 0.59, the BI-6h (PRKD3; 6h post-washout) was 0.72 and the IC50 (MAP2K1/2) was less than 0.01 µM. The BI-0h (PIP4K2C; 0h post-washout) was 0.8, the BI-6h (PIP4K2C; 6h post-washout) was 0.6 and the BI-0h (EPHA2; 0h post-washout) was 0.71. The BI-6h (EPHA2; 6h post-washout) was 0.49, the BI-0h (EIF2AK3; 0h post-washout) was 0.8 and the BI-6h (EIF2AK3; 6h post-washout) was 0.66. For the same compound, the BI-0h (CDK17; 0h post-washout) was 0.46 and the BI-6h (CDK17; 6h post-washout) was 0.76.
